Patent US20240041898A9, “NEUROSTEROIDS AND ENANTIOMERS THEREOF FOR THE PREVENTION AND TREATMENT OF NEURODEGENERATIVE CONDITIONS” (priority 2019, published 2024)
Values joined by “and” are separate entries in the source; they are usually repeats but may differ in a detail not shown here. Equal entries are not always repeated.

Tests used:
[1] = tested on: optic nerve axons; experiment: Rat in vivo OHT model, density of optic nerve axons; settings: OHT eyes, intravitreal, 3 weeks after microbead injection; single values
Description: (§1) Example 7. Rat in vivo OHT model induced by intracameral injection of microbeads—For induction of ocular hypertension (OHT) in vivo, sterile 6 μm polystyrene microbeads were injected into the anterior chamber of the left eye of each animal using a single-step, sclero-corneal tunnel approach with a 35G nanoneedle (FIG. 4A). […] After stabilization of elevated IOP, animals were randomly divided into 3 groups (non-treated OHT, AlloP injection, and ent-AlloP injection). AlloP and ent-AlloP were administered as a one-time intravitreal injection one week following bead injection. Non-treated OHT animals received sterile vehicle intravitreally. As a further control, vehicle was intravitreally injected 7 days after intracameral administration of 10 μl of PBS. Three weeks after bead injections, IOP was 26.7±3.7 mmHg in non-treated OHT eyes compared to 9.9±0.9 mmHg in control eyes.
Example 9. RGC survival by neurosteroids during IOP elevation—In whole mounted retinas, glaucomatous damage was visible as reduced numbers of cells that were positive for NeuN three weeks after microbead injection in non-treated OHT eyes compared with control eyes (FIG. 4J, 4K). […] In sections of optic nerves stained with 2% toluidine blue, axonal loss was detected 3 weeks after microbead injection in non-treated OHT eyes compared with control eyes (FIG. 4O, 4p). […]

[2] = tested on: retinal ganglion cells (RGCs); experiment: Rat in vivo OHT model, NeuN-positive RGC survival in whole mount retina; settings: OHT eyes, intravitreal, three weeks after microbead injection; single values
Description: as §1, with “eyes. […]” for “eyes.”

[3] = tested on: TUNEL-positive RGCs; experiment: Ex vivo pressure-loaded retinas, TUNEL staining (apoptosis); format: cell-based, rat; settings: 75 mmHg, 1 μM, single values
Description: Rat ex vivo Eyecup Preparation—Rat ex vivo eyecups were prepared from 28-32 day old male Sprague-Dawley rats (Charles River Laboratories International Inc., Wilmington, MA). The anterior half of the enucleated eyes was carefully removed to make eyecup preparations. Eyecups were placed at the bottom of a 100 ml glass beaker filled with aCSF (artificial cerebrospinal fluid) containing (in mM): 124 NaCl, 5 KCl, 2 MgSO4, 2 CaCl2, 1.25 NaH2PO4, 22 NaHCO3, and 10 glucose, and incubated at 30° C. for 24 hours using a closed pressure-loading system (FIG. 1C). pH was maintained at 7.35 to 7.40. […]
Acutely prepared eyecups were incubated in gassed aCSF for at least 1 h at 30° C. before pressure loading. […] For pressure loading, the 95% O2-5% CO2 gas mixture was infused until the pressure reading given by a manometer reached the appropriate level. The pressure was then locked by adjusting the control dial of the effusion valve, and monitored continuously for 24 h at 30° C.
Apoptosis—To visualize apoptotic cells, a DeadEnd™ Colorimetric TUNEL (TdT-mediated dUTP Nick-End Labeling) System (Promega, Madison, WI) was used according to the manufacturer's instructions. […] After the length of each retinal section was measured (Image-Pro Plus software), the cells were counted in the whole section length and the number of cells was normalized per 200 μm of retinal section. […]

CC(=O)[C@@H]1CC[C@@H]2[C@H]3CC[C@@H]4C[C@@H](O)CC[C@@]4(C)[C@@H]3CC[C@]21C [ent-AlloP, ent-allopregnanolone]
Density of axons in ONs, individual 1-5 [1]: 31 Axons × 10000/square mm and 33 Axons × 10000/square mm and 32 Axons × 10000/square mm and 29 Axons × 10000/square mm and 27 Axons × 10000/square mm | RGC Survival (FIG. 4N), number of NeuN-positive cells, individual 1-5 [2]: 2060 per square millimeter and 2260 per square millimeter and 2500 per square millimeter and 2200 per square millimeter and 2460 per square millimeter | TUNEL Staining (number of TUNEL-positive RGCs), individual areas 1-5 [3]: 10 per 200 μm of retina section and 1 per 200 μm of retina section and 0 per 200 μm of retina section (2×) and 2 per 200 μm of retina section

CC(=O)[C@H]1CC[C@H]2[C@@H]3CC[C@H]4C[C@H](O)CC[C@]4(C)[C@H]3CC[C@]12C [AlloP, allopregnanolone]
Density of axons in ONs, individual 1-5 [1]: 33 Axons × 10000/square mm (2×) and 27 Axons × 10000/square mm and 32 Axons × 10000/square mm and 29 Axons × 10000/square mm | RGC Survival (FIG. 4N), number of NeuN-positive cells, individual 1-5 [2]: 2200 per square millimeter and 2240 per square millimeter and 1940 per square millimeter and 1860 per square millimeter and 1800 per square millimeter | TUNEL Staining (number of TUNEL-positive RGCs), individual areas 1-5 [3]: 7 per 200 μm of retina section and 0 per 200 μm of retina section (3×) and 2 per 200 μm of retina section
